# Where a name gives a salt, the structure may show the parent alone.
# Key:
# Type in all cases: physicochemical
# [1] = Aerosol performances by Next Generation Impactor (NGI) from NEXThaler; settings: formulation of Example 3, NEXThaler, 60 L/min; mean±S.D., n=6
# Procedure: Aerosol performances were determined using the Next Generation Impactor (NGI) with a USP induction port and pre-separator containing 15 mL 60:40% v/v MeOH:H2O. […] The aerodynamic particle size distribution was based on 5 actuations from the NEXThaler®, each sampled into 4 liters of air (equivalent to an inhalation time of 4 s). The device was weighed before and after each actuation to determine the shot weight (mg). A minimum of 1 minute was allowed between consecutive actuations to allow static charge to dissipate.
# Samples were collected from the NGI using a fixed volume technique. MeOH:H2O (60:40% v/v) was dispensed into the induction port (including mouthpiece); pre-separator; and each stage using an electronic metering dispenser. The induction port (30 mL) and pre-separator (50 mL) were sealed using silicone bungs and shaken by hand for 2 minutes before the samples were collected. The NGI stages (10 mL stages 1-2; 15 mL stage 3-MOC) were rocked using a NGI rocker for 3 minutes. All samples were filtered using a 0.2 μm syringe filter before analysis by UPLC-PDA.
# [2] = Drug content of the microparticles by UPLC assay; settings: in spray dried microparticles of Example 1; mean±SD, n=5
# [3] = Uniformity of distribution of the active ingredients in the powder formulation (UPLC-PDA); settings: powder formulation of Example 3; for Content: sampled 10 times
# Procedure: About 10 mg of the formulation was weighed directly into a 25 mL volumetric flask. It was sampled 10 times. The flask was made up to volume with 60:40% v/v MeOH:H2O and sonicated for 2 minutes. The samples were analyzed for each active ingredient using UPLC-PDA assay.
Structure (SMILES),DD (delivered dose) [1] [µg],Actual concentration [2] [% w/w],% of Target [3] [%],Content [3] [μg 10 mg^−1],FPF (fine particle fraction) [1] [%],FPF < 1 μm (extrafine FPF) [1] [%],FPF < 2 μm (extrafine FPF) [1] [%],"FPM (fine particle mass, ≤5.0 micron) [1] [µg]",MMAD [1] [μm]
"COc1ccc(CC(C)NCC(O)c2ccc(O)c(NC=O)c2)cc1 (stereo not shown) [FF, formoterol fumarate dihydrate]",5.2 ± 0.1,,,,,,,,
"CCC(=O)OCC(=O)[C@@]1(OC(=O)CC)[C@@H](C)C[C@H]2[C@@H]3CCC4=CC(=O)C=C[C@]4(C)[C@@]3(Cl)[C@@H](O)C[C@@]21C [BDP, beclometasone dipropionate]",87.6 ± 2.2,82.0 ± 0.3,98.75,98.75 ± 1.23,68.5 ± 3.1,20.8 ± 0.7,38.6 ± 1.2,60.0 ± 3.6,1.9 ± 0.1
"C[N+]1(C)CCC(OC(=O)C(O)(c2ccccc2)C2CCCC2)C1 (racemic) [GB, glycopyrronium bromide]",11.5 ± 0.4,10.6 ± 0.1,105.37,12.64 ± 0.18,68.5 ± 3.7,21.7 ± 0.7,39.3 ± 1.6,7.9 ± 0.5,1.9 ± 0.1
